Source: patent publication US12594264B2, “Modulators of alpha-synuclein proteolysis and associated methods of use” (Arvinas Operations, Inc., priority 2018, dated 2026)

What was measured:
[1] = system: PFF induced HEK293 TREX α-syn A53T cells; assay: Cytotoxicity by visual inspection of treated cells; assay type: cell-based, human; conditions: 1 μM
Method: (§1) Targeted degradation of sarkosyl insoluble (SI) α-synuclein via exemplary bifunctional compounds was assessed by MJFF-14-6-4-2 conformation specific ELISA following treatment of PFF induced A53T α-synuclein overexpressing HEK293 cells with 1 μM exemplary compound compared to DMSO vehicle control. Degradation activity of the exemplary compounds of Table 2 is expressed as % DMSO control. […] However, the effect of bifunctional targeting degraders, shown in FIG. 5, required the intact E3 ligase binding domain.
(§2) Trex293 (doxycycline inducible) cells stably expressing human α-SYN A53T (monoclonal) were plated in poly-d-lysine coated T-75 tissue culture flasks (4.5×10e6 cells/flask) in DMEM with 10% tet-free FBS, 10 μg/ml blasticidin, and 400 μg/ml zeocin. After an overnight incubation, the cells were induced to express α-SYN by treatment with 1 μg/ml doxycycline (Dox) and exemplary bifunctional compound. After a 24 hour dox induction, the medium on the cells was changed to Opti-MEM followed by treatment with α-SYN pre-formed fibrils** (PFFs)(5 μg/flask) pre-complexed with Lipofectamine 2000 transfection reagent for 4 hours. After PFF treatment, the medium was changed back to DMEM with the supplements described above and exemplary bifunctional compound for 48 hours.
To assess targeted degradation of sarkosyl insoluble α-synuclein, exemplary bifunctional compounds designed to bind to oligomeric α-synuclein were tested at 1 μM in PFF induced HEK293 TREX α-syn A53T cells.

[2] = molecular target: T1, sarkosyl insoluble (SI) α-synuclein (human α-SYN A53T) (Homo sapiens, UniProt P37840, A53T); assay: MJFF-14-6-4-2 conformation specific ELISA of sarkosyl insoluble α-synuclein after compound treatment; assay type: cell-based; conditions: 1 μM compound; protein remaining relative to DMSO control; PFF induced A53T α-synuclein overexpressing HEK293 cells; read-out: Protein Degradation at 1 μM
T1 construct: expressed in transfected cells
Method: as §1, §2
Cell pellets were harvested from each flask using 0.25% trypsin followed by spinning at 500×g for 5 minutes. Each pellet was resuspended in 1 ml cold buffer H [Buffer H-10 mM Tris, 1 mM EGTA, 0.8M NaCl, 10% sucrose, pH7.4 containing 1× protease and phosphatase inhibitors] containing protease and phosphatase inhibitors. The resuspended pellets were incubated on ice for 20 minutes followed by centrifugation at 27,200×g for 20 minutes at 4° C. The supernatants were adjusted to 1% sarkosyl (Sigma) and 1% 2-mercaptoethanol followed by incubation for 1 hour at 37° C. on an orbital shaker set to 400 rpm. The samples were then spun at 150,000×g for 35 minutes at room temperature. The supernatant was removed and saved as the soluble fraction and the insoluble pellet was resuspended in 25 μl tris-buffered saline (TBS). Protein concentrations were determined by NanoDrop, and normalized protein concentrations were analyzed by WES capillary electrophoresis as well as an α-SYN oligomer ELISA.
Recombinant human α-SYN was purchased from Proteos. 1 mg aliquots were supplied at 10 mg/ml in 10 mM Tris, 50 mM NaCl, pH7.6. The aliquot was thawed on ice followed by centrifugation at 4° C. for 10 minutes at 12,000×g to pellet any insoluble material. The supernatant was removed and quantitated on a NanoDrop (A280) using Beer's Law (ε=5960 M-1 cm-1). The concentration was adjusted to 5 mg/ml in PBS followed by vortexing for 3 seconds to mix contents. The mixture was incubated in an orbital shaker set to 37° C. at 1,000 rpm for 7 days followed by aliquoting into individual use vials. Prior to addition to cells, an aliquot was thawed at room temperature, then diluted to 1 mg/ml with phosphate-buffered saline (PBS) followed by sonication for 1 minute with a probe sonicator (output 1; 90% duty cycle) in a chem hood.
Coming Costar high bind black well plates were coated with MJFR 14-6-4-2 (Abcam) at 1 μg/ml for 1 hour at 37° C. followed by washing with 1×TBS+0.1% tween-20 (TBS-T) then blocking with 3% bovine serum albumin (BSA) in TBS. After re-washing, samples were added after dilution in diluent (1% BSA/TBS-T). Non-sonicated PFF was used to generate a standard curve. The plates were incubated with sample overnight at 4° C. with shaking. The following day alkaline phosphatase (AP) conjugated MJFR 14-6-4-2 was added to the plate without washing followed by incubation at room temperature for 1 hour with shaking or rocking. The plates were then re-washed and substrate (CDP star alkaline phosphatase detection reagent) was added followed by a 30 minute incubation at room temperature. The plate was read on a luminescence plate reader. The counts were log transformed and read off the standard curve. […]

SMILES: Cc1ncsc1-c1ccc([C@H](C)NC(=O)[C@@H]2C[C@@H](O)CN2C(=O)[C@@H](NC(=O)COCCOCCOc2ccc(CN3C(=O)C(=CC=Cc4ccc([N+](=O)[O-])cc4)c4ccccc43)cc2)C(C)(C)C)cc1 (single isomer, unassigned) [Exemplary Compound 6]
- Cytotoxicity at the concentration tested [1]: without any visual impact to cell health

SMILES: O=C1CCC(N2C(=O)c3ccc(OCCOCCOCCOCCOc4ccc5c(c4)Sc4cc([N+](=O)[O-])ccc4N5)cc3C2=O)C(=O)N1 (stereo not shown) [Exemplary Compound 13, 2-(2,6-dioxo-3-piperidyl)-5-[2-[2-[2-[2-[(7-nitro-10H-phenothiazin-3-yl)oxy]ethoxy]ethoxy]ethoxy]ethoxy]isoindoline-1,3-dione]
- Cytotoxicity at the concentration tested [1]: cytotoxicity
- Cytotoxicity at the concentration tested ([1]; listed as 13): cytotoxic

SMILES: Cc1ncsc1-c1ccc([C@H](C)NC(=O)[C@@H]2C[C@@H](O)CN2C(=O)[C@@H](NC(=O)COCCOCCOCCOCCOCCOCCOc2ccc3c(c2)Sc2cc([N+](=O)[O-])ccc2N3)C(C)(C)C)cc1 [Exemplary Compound 12, (2S,4R)-1-((S)-2-(tert-butyl)-23-((7-nitro-10H-phenothiazin-3-yl)oxy)-4-oxo-6,9,12,15,18,21-hexaoxa-3-azatricosanoyl)-4-hydroxy-N-((S)-1-(4-(4-methylthiazol-5-yl)phenyl)ethyl)pyrrolidine-2-carboxamide]
- remaining activity at 1 µM [2]: > 120%
- Cytotoxicity at the concentration tested [1]: cytotoxicity
- Cytotoxicity at the concentration tested ([1]; listed as 12): cytotoxic

SMILES: Cc1ncsc1-c1ccc([C@H](C)NC(=O)[C@@H]2C[C@@H](O)CN2C(=O)[C@@H](NC(=O)COCCOCCOCCOc2ccc3c(c2)Sc2cc([N+](=O)[O-])ccc2N3)C(C)(C)C)cc1 [Exemplary Compound 9, (2S,4R)-1-((S)-2-(tert-butyl)-14-((7-nitro-10H-phenothiazin-3-yl)oxy)-4-oxo-6,9,12-trioxa-3-azatetradecanoyl)-4-hydroxy-N-((S)-1-(4-(4-methylthiazol-5-yl)phenyl)ethyl)pyrrolidine-2-carboxamide]
- remaining activity at 1 µM [2]: > 120%
- Cytotoxicity at the concentration tested [1]: cytotoxicity
- Cytotoxicity at the concentration tested ([1]; listed as 9): cytotoxic

SMILES: Cc1ncsc1-c1ccc([C@H](C)NC(=O)[C@@H]2C[C@@H](O)CN2C(=O)[C@@H](NC(=O)COCCOCCOCCOCCOCCOc2ccc3c(c2)Sc2cc([N+](=O)[O-])ccc2N3)C(C)(C)C)cc1 [Exemplary Compound 11, (2S,4R)-1-((S)-2-(tert-butyl)-20-((7-nitro-10H-phenothiazin-3-yl)oxy)-4-oxo-6,9,12,15,18-pentaoxa-3-azaicosanoyl)-4-hydroxy-N-((S)-1-(4-(4-methylthiazol-5-yl)phenyl)ethyl)pyrrolidine-2-carboxamide]
- remaining activity at 1 µM [2]: > 120%

SMILES: COc1ccc2nc(-c3ccc(N4CC(OC5CCN(CCCCCOc6ccc7c(c6)C(=O)N(C6CCC(=O)NC6=O)C7=O)CC5)C4)cc3)sc2c1 (stereo not shown) [Exemplary Compound 25, 2-(2,6-dioxopiperidin-3-yl)-5-([5-[4-([1-[4-(6-methoxy-1,3-benzothiazol-2-yl)phenyl]azetidin-3-yl]oxy)piperidin-1-yl]pentyl]oxy)-2,3-dihydro-1H-isoindole-1,3-dione]
- remaining activity at 1 µM [2]: > 120%
- Cytotoxicity at the concentration tested [1]: cytotoxicity
- Cytotoxicity at the concentration tested ([1]; listed as 25): cytotoxic

SMILES: CNc1ccc(-c2nc3ccc(OCCOCCOCCOCC(=O)N[C@H](C(=O)N4C[C@H](O)C[C@H]4C(=O)N[C@@H](C)c4ccc(-c5scnc5C)cc4)C(C)(C)C)cc3s2)cc1 [Exemplary Compound 2, (2S,4R)-1-((S)-2-(tert-butyl)-14-((2-(4-(methylamino)phenyl)benzo[d]thiazol-6-yl)oxy)-4-oxo-6,9,12-trioxa-3-azatetradecanoyl)-4-hydroxy-N—((S)-1-(4-(4-methylthiazol-5-yl)phenyl)ethyl)pyrrolidine-2-carboxamide]
- remaining activity at 1 µM [2]: 35 to 70%
- Cytotoxicity at the concentration tested [1]: without any visual impact to cell health

SMILES: O=C1CCC(N2C(=O)c3ccc(OCCCCCN4CCC(O[C@H]5C[C@H](Oc6ccc(CN7C(=O)C(=CC=Cc8ccc([N+](=O)[O-])cc8)c8ccccc87)cc6)C5)CC4)cc3C2=O)C(=O)N1 (stereo partly shown) [Exemplary Compound 31, 2-(2,6-dioxopiperidin-3-yl)-5-((5-(4-((1r,3r)-3-(4-(((Z)-3-((E)-3-(4-nitrophenyl)allylidene)-2-oxoindolin-1-yl)methyl)phenoxy)cyclobutoxy)piperidin-1-yl)pentyl)oxy)isoindoline-1,3-dione]
- remaining activity at 1 µM [2]: 70 to 120%

SMILES: COc1cc(/C=C/c2ccc3cc(OCCOCCOCCOCCOc4ccc5c(c4)C(=O)N(C4CCC(=O)NC4=O)C5=O)ccc3n2)ccn1 (stereo not shown) [Exemplary Compound 36, 2-(2,6-dioxo-3-piperidyl)-5-[2-[2-[2-[2-[[2-[(E)-2-(2-methoxy-4-pyridyl)vinyl]-6-quinolyl]oxy]ethoxy]ethoxy]ethoxy]ethoxy]isoindoline-1,3-dione]
- remaining activity at 1 µM [2]: > 120%

SMILES: CNc1ccc(-c2nc3ccc(OCCOCCOCCOCCOCCOCCOCC(=O)N[C@H](C(=O)N4C[C@H](O)C[C@H]4C(=O)N[C@@H](C)c4ccc(-c5scnc5C)cc4)C(C)(C)C)cc3s2)cc1 [Exemplary Compound 5, (2S,4R)-1-((S)-2-(tert-butyl)-23-((2-(4-(methylamino)phenyl)benzo[d]thiazol-6-yl)oxy)-4-oxo-6,9,12,15,18,21-hexaoxa-3-azatricosanoyl)-4-hydroxy-N-((S)-1-(4-(4-methylthiazol-5-yl)phenyl)ethyl)pyrrolidine-2-carboxamide]
- remaining activity at 1 µM [2]: < 35%
- Cytotoxicity at the concentration tested [1]: without any visual impact to cell health

SMILES: O=C1CCC(N2C(=O)c3ccc(OCCCCCN4CCC(OC5CN(CCCN6c7ccccc7Sc7ccccc76)C5)CC4)cc3C2=O)C(=O)N1 (stereo not shown) [Exemplary Compound 22, 2-(2,6-dioxo-3-piperidyl)-5-[5-[4-[1-(3-phenothiazin-10-ylpropyl)azetidin-3-yl]oxy-1-piperidyl]pentoxy]isoindoline-1,3-dione]
- remaining activity at 1 µM [2]: 35 to 70%

SMILES: CN(CCCN1c2ccccc2Sc2ccccc21)CCOCCOCCOCCOc1ccc2c(c1)C(=O)N(C1CCC(=O)NC1=O)C2=O (stereo not shown) [Exemplary Compound 16, 2-(2,6-dioxo-3-piperidyl)-5-[2-[2-[2-[2-[methyl(3-phenothiazin-10-ylpropyl)amino]ethoxy]ethoxy]ethoxy]ethoxy]isoindoline-1,3-dione]
- remaining activity at 1 µM [2]: 70 to 120%

SMILES: O=C1CCC(N2C(=O)c3ccc(OCCOCCOCCOCCOCCOc4ccc5c(c4)Sc4cc([N+](=O)[O-])ccc4N5)cc3C2=O)C(=O)N1 (stereo not shown) [Exemplary Compound 14, 2-(2,6-dioxopiperidin-3-yl)-5-((14-((7-nitro-10H-phenothiazin-3-yl)oxy)-3,6,9,12-tetraoxatetradecyl)oxy) isoindoline-1,3-dione]
- remaining activity at 1 µM [2]: 35 to 70%
